Assay results from publication PMC9516332 (Frontiers in Oncology, 2022).
Read-outs that look alike come from different tables or passages of the source.

Key:
Assay in all cases: Kinase panel profiling at 1 µmol/L (MSA or IMAP), percentage inhibition
Assay type in all cases: biochemical
[1] = target: panel of 255 wild-type kinases (Homo sapiens, UniProt P27448); settings: read-out: %-inhibition, MARK3
[2] = target: T1, panel of 255 wild-type kinases (Homo sapiens, UniProt Q8TF76); settings: read-out: %-inhibition at 1 µmol/L, Haspin
T1 sequence (Q8TF76 1-798): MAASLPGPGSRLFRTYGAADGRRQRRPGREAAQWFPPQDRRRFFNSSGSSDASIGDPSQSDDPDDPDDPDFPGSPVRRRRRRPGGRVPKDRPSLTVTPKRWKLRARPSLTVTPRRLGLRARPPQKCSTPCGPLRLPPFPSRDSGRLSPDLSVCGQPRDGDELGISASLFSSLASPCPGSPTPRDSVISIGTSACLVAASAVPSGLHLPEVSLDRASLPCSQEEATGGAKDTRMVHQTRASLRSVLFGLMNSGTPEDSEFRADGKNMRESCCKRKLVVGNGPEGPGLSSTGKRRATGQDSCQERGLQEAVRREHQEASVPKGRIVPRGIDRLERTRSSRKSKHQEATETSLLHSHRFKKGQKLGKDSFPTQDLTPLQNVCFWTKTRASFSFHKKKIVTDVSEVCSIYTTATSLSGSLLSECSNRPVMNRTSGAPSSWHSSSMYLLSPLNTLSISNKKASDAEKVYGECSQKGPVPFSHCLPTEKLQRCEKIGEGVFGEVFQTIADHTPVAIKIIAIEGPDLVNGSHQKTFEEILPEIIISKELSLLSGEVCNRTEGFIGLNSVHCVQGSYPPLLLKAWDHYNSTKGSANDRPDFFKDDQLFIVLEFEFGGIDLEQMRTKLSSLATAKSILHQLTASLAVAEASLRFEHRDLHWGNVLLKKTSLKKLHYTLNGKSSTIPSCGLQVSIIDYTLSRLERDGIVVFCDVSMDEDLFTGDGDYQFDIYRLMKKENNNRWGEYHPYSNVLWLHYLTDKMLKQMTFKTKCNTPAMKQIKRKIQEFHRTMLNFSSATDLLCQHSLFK

[3] = target: T2, panel of 255 wild-type kinases (Homo sapiens, UniProt P41743); settings: read-out: %-inhibition at 1 µmol/L, PKCι
T2 sequence (P41743 1-596): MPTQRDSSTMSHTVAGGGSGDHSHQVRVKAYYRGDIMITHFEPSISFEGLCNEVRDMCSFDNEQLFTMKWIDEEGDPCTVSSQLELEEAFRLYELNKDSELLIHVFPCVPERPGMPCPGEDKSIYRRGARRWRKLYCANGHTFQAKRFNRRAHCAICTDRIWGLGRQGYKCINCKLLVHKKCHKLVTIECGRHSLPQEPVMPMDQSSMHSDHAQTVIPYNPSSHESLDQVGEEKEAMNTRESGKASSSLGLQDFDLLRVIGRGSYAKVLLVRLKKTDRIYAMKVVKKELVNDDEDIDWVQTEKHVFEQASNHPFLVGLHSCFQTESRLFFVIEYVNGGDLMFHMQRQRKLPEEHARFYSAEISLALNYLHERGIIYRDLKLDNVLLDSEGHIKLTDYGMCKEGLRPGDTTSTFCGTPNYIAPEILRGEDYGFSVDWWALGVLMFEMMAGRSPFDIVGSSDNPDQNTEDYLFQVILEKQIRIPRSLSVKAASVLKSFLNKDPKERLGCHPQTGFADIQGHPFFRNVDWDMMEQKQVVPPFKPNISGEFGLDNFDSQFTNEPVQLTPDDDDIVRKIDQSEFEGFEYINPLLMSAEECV

[4] = target: panel of 255 wild-type kinases (Homo sapiens, UniProt O00311); settings: read-out: %-inhibition CDC7/ASK
[5] = target: panel of 255 wild-type kinases (Homo sapiens, UniProt P17252); settings: read-out: %-inhibition at 1 µmol/L, PKCα
[6] = target: T3, panel of 255 wild-type kinases (Homo sapiens, UniProt Q12851); settings: read-out: %-inhibition at 1 µmol/L, MAP4K2
T3 sequence (Q12851 1-820): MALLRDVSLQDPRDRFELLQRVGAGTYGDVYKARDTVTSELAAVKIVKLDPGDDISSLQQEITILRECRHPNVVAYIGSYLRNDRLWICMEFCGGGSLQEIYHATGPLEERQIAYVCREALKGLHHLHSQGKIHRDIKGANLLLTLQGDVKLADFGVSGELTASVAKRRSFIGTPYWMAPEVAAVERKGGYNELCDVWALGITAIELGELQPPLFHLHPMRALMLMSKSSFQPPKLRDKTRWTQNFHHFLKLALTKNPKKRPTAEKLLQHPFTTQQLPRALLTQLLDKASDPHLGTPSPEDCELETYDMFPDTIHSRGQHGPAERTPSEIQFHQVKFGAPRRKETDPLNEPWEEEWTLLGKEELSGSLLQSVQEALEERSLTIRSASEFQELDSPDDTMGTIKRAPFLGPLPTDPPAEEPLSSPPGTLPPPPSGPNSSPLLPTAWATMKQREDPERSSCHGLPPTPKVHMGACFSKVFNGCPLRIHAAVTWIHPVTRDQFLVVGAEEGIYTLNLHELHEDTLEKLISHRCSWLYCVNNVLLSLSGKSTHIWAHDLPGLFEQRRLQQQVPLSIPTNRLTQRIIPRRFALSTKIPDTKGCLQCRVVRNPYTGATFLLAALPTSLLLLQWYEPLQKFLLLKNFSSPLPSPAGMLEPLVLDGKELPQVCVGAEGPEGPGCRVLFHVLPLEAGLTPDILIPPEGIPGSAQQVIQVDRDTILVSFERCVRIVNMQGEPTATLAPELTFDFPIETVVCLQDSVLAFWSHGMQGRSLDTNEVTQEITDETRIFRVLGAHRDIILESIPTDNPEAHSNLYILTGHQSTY

[7] = target: panel of 255 wild-type kinases (Homo sapiens, UniProt O95819); settings: read-out: %-inhibition at 1 µmol/L, HGK
[8] = MARK3, 1 µmol/L single concentration
[9] = kinase Haspin, 1 µmol/L single concentration
[10] = kinase PKCι, 1 µmol/L single concentration
[11] = CDC7/ASK kinase assay, 1 µmol/L single concentration
[12] = kinase PKCα, 1 µmol/L single concentration
[13] = kinase MAP4K2, 1 µmol/L single concentration
[14] = kinase HGK, 1 µmol/L single concentration

inhibition at 1 µM [5, 12] | SMILES | inhibition at 1 µM [1, 8] | inhibition at 1 µM [2, 9] | inhibition at 1 µM [3, 10] | inhibition at 1 µM [4, 11] | inhibition at 1 µM [6, 13] | inhibition at 1 µM [7, 14] | inhibition at 1 µM [1] | inhibition at 1 µM [2] | inhibition at 1 µM [3] | inhibition at 1 µM [4] | inhibition at 1 µM [5] | inhibition at 1 µM [6] | inhibition at 1 µM [7]
0.203% | Cn1cnc2c(F)c(Nc3ccc(Br)cc3Cl)c(C(=O)NOCCO)cc21 [selumetinib] | -6% | 3.64% | -6.5% | -0.0396% | 2.67% | 1.58% | – | – | – | – | – | – | –
3.23% | COc1ccc(CN2C3CC2CN(c2ccc(-c4cc(OCC(C)(C)O)cn5ncc(C#N)c45)cn2)C3)cn1 [selpercatinib] | 45% | -4.63% | -0.803% | -2% | 4.23% | 7% | – | – | – | – | – | – | –
-3% | O=C(Nc1cnn2ccc(N3CCC[C@@H]3c3cc(F)ccc3F)nc12)N1CC[C@H](O)C1 [larotrectinib] | 4% | -4.46% | -6% | -3.24% | -2% | 2.53% | – | – | – | – | – | – | –
– | CNC(=O)c1ccc(-c2cnc3ncc(Cc4ccc5ncccc5c4)n3n2)cc1F [capmatinib] | – | – | – | – | – | – | -0.936% | 37% | -10% | -1.4% | -3.51% | -0.216% | 2.68%
0.321% | C[C@H](Nc1ncnc2nc[nH]c12)c1cc2cccc(Cl)c2c(=O)n1-c1ccccc1 [duvelisib] | 12% | 2% | 18% | 0.486% | 2.36% | 2% | – | – | – | – | – | – | –
3% | CO[C@]1(C(=O)N[C@@H](C)c2ccc(-n3cc(F)cn3)nc2)CC[C@H](c2nc(C)cc(Nc3cc(C)[nH]n3)n2)CC1 [pralsetinib] | -8% | 0.149% | -7.5% | -1.05% | 3.5% | 3% | – | – | – | – | – | – | –
5% | Cc1cc(Nc2ncnc3ccc(NC4=NC(C)(C)CO4)cc23)ccc1Oc1ccn2ncnc2c1 [tucatinib] | -10% | 0.893% | -2.24% | -0.857% | 6% | 3.65% | – | – | – | – | – | – | –
-0.116% | Cn1cnc2c(F)c(Nc3ccc(Br)cc3F)c(C(=O)NOCCO)cc21 [binimetinib] | 7% | -15% | 15% | -0.214% | -1.27% | 3.18% | – | – | – | – | – | – | –
1.21% | Cc1nc(NC(=O)N2CCC[C@H]2C(N)=O)sc1-c1ccnc(C(C)(C)C(F)(F)F)c1 [alpelisib] | 11% | -4% | 21% | -0.499% | 5.56% | 2.66% | – | – | – | – | – | – | –
– | CCc1nc(C(N)=O)c(Nc2ccc(N3CCC(N4CCN(C)CC4)CC3)c(OC)c2)nc1NC1CCOCC1 [gilteritinib] | 52% | 35% | 28% | 3% | 99% | 96% | – | – | – | – | – | – | –

SMILES | inhibition at 1 µM [5, 12] | inhibition at 1 µM [1, 8] | inhibition at 1 µM [2, 9] | inhibition at 1 µM [3, 10] | inhibition at 1 µM [4, 11] | inhibition at 1 µM [6, 13] | inhibition at 1 µM [7, 14] | inhibition at 1 µM [1] | inhibition at 1 µM [2] | inhibition at 1 µM [3] | inhibition at 1 µM [4] | inhibition at 1 µM [5] | inhibition at 1 µM [6] | inhibition at 1 µM [7]
CCN1C(=O)N(c2c(F)c(OC)cc(OC)c2F)Cc2cnc3[nH]c(CN4CCOCC4)cc3c21 [pemigatinib] | -1.62% | 56% | -3.7% | -4% | -3.54% | 8% | 4.64% | – | – | – | – | – | – | –
FC(F)(F)c1ccc(CNc2ccc(Cc3c[nH]c4ncc(Cl)cc34)cn2)cn1 [pexidartinib] | -8% | 12% | 6.52% | 23% | 0.521% | 31% | 24% | – | – | – | – | – | – | –
C=CC(=O)N1CCC([C@@H]2CCNc3c(C(N)=O)c(-c4ccc(Oc5ccccc5)cc4)nn32)CC1 [zanubrutinib] | -2.63% | -1.28% | -1.75% | -8% | -4% | -2.68% | 5.63% | – | – | – | – | – | – | –
C[C@H]1Oc2cc(cnc2N)-c2c(nn(C)c2C#N)CN(C)C(=O)c2ccc(F)cc21 [lorlatinib] | 12% | 26% | 0.865% | 19% | -2% | 20% | 1% | – | – | – | – | – | – | –
CCN1CCN(c2ccc(Nc3cc(N(C)C(=O)Nc4c(Cl)c(OC)cc(OC)c4Cl)ncn3)cc2)CC1 [infigratinib] | -4% | -7.59% | -1.4% | -10% | -2% | 23% | 15% | – | – | – | – | – | – | –
COC(=O)N[C@@H](C)CNc1nccc(-c2cn(C(C)C)nc2-c2cc(Cl)cc(NS(C)(=O)=O)c2F)n1 [encorafenib] | 5% | 8% | -5% | -1.18% | -4.28% | 4% | 7.59% | – | – | – | – | – | – | –
CN1CCN(c2ccc(C(=O)Nc3n[nH]c4ccc(Cc5cc(F)cc(F)c5)cc34)c(NC3CCOCC3)c2)CC1 [entrectinib] | 20% | 15% | -2.24% | 34% | 0.952% | 85% | 7% | – | – | – | – | – | – | –
